Entries after “also recorded” stand apart in the source; their conditions may differ.

Usually IC50 stands for the concentration needed to halve the response being measured. High values mean lower potency, low ones higher potency.

Test [1] deals with IL-2 production. Description: Inhibition of IL-2 production in PHA-activated Jurkat cells (ELISA). The test is classed as cell-based. The conditions noted are these: Homo sapiens, PHA 2.5 μg/mL, 20 hours, IL-2 ELISA. Background: In an ELISA, binding on a coated surface is turned into a signal by an enzyme label.
The subject of test [2] is Delayed-Type Hypersensitivity (DTH) reaction. Description: Inhibition of delayed-type hypersensitivity (DTH) reaction in rats. As to conditions: rat DTH; for Inhibition of gross change (%) Ear thickness (mm) / Inhibition of gross change (%) Ear weight (mg): 15 mg/kg orally at −2, +3, +9 hr, 24 hr after OVA challenge, relative to vehicle-treated group; for effect on ear weight after ovalbumin challenge / effect on ear thickness after ovalbumin challenge: compared to vehicle alone; for effect on ear weight after ovalbumin challenge: FIGS. 1 and 2; for effect on ear thickness after ovalbumin challenge: FIGS. 3 and 4. The test is classed as in vivo, Lewis rats. How it is done:
Lewis rats (n=7 each group) were sensitized with chicken ovalbumin (OVA; Sigma, A5503) and complete Freund's adjuvant (CFA; Sigma F5881) was injected into tail base by s.c. on day 0. On day 7, the animals were challenged with ovalbumin (OVA) on their right ears.
Compounds 1 and 10 were prepared in vehicle solution (20% Vitamin E TPGS and 80% PEG-8).
Female Lewis rats, 6-8 weeks of age, were obtained from Charles River Laboratories and permitted to acclimate for one week prior to experimental procedures. Rodents were allowed water and food ad libitum. Animals were housed in accordance with the Institutional Animal Care and Use Committee (IACUC), and experiments were performed in compliance with IACUC guidelines.
Rat ears were measured with a dial thickness gauge (Mitutoyo gauge #8, Mitutoyo, USA). The swelling response was calculated by subtracting the ear thickness before challenge (baseline) from that of the same ear after challenge. To measure the ear weight, both left and right ears of euthanized rats were punched out with cork holer, the ear weight change was calculated by subtracting the saline-treated left ear weight from that of the OVA-challenged right ear weight.
Delayed-type hypersensitivity is an in vivo T cell-dependent immune response manifested as an inflammatory reaction that reaches peak intensity 24 hr after OVA challenge. To determine the immunosuppressive effect of Compounds 1 and 10 in the rat DTH reaction, groups of rats (n=7) were administered with either vehicle, Compound 1 or Compound 10, orally three times, starting 2 hr before ear challenge, and 3 and 9 hr after ear challenge.

For `COc1ccc2c(c1)nc(C(F)(F)F)n2-c1cnc(NC(=O)c2ccccc2C)cn1` [Compound 10, N-[5-(5-Methoxy-2-trifluoromethyl-benzoimidazol-1-yl)-pyrazin-2-yl]-2-methyl-benzamide], the IC50 in test [1] worked out at 12 nM. Also, in test [2], the “Inhibition of gross change (%) Ear thickness (mm)” value is on record as 15%; the “Inhibition of gross change (%) Ear weight (mg)” value is on record as 24%; the “effect on ear weight after ovalbumin challenge” value is “even stronger effect on reducing ear thickness and weight after challenge than Compound 1; also recorded: reduced ear thickness and weight after challenge more than dosing with cyclosporine A”; the “effect on ear thickness after ovalbumin challenge” value is “even stronger effect on reducing ear thickness and weight after challenge than Compound 1; also recorded: reduced ear thickness and weight after challenge more than dosing with cyclosporine A”.
Compound `COc1ccc2c(c1)nc(C(F)(F)F)n2-c1cnc(NC(=O)c2c(F)cccc2F)cn1` [Compound 1, 2,6-Difluoro-N-[5-(5-methoxy-2-trifluoromethyl-benzoimidazol-1-yl)-pyrazin-2-yl]-benzamide] gave a 50% inhibitory concentration (IC50) in test [1] of 6 nM. In addition, in test [2], the “Inhibition of gross change (%) Ear thickness (mm)” value was 77%, the “Inhibition of gross change (%) Ear weight (mg)” value is listed as 79%, the “effect on ear weight after ovalbumin challenge” value is given as “decreased ear weight; also recorded: significantly inhibited” and the “effect on ear thickness after ovalbumin challenge” value is given as “decreased ear thickness; also recorded: significantly inhibited”.

The values above are taken from US8119643B2, “Benzoimidazolyl-pyrazine compounds for inflammation and immune-related uses” (Synta Pharmaceuticals Corp., priority 2006, dated 2012).
